The values that follow come from article PMC4821856, “Novel Anti-Campylobacter Compounds Identified Using High Throughput Screening of a Pre-selected Enriched Small Molecules Library” (Frontiers in Microbiology, 2016).

Structures are written as SMILES. ≈ marks a conversion by molar mass, not a printed value. Like-named read-outs stand apart in the source and are kept apart here.

In experiment [1] the test system is C. jejuni 81–176. Description: Minimum inhibitory concentration (MIC), two-fold serial dilution, OD600 end point. The format is cell-based. The conditions noted are these: Campylobacter jejuni, 24 h, read-out: C. jejuni MIC (minimum inhibitory concentration). The method, then:
A primary screen was conducted using the highly invasive C. jejuni strain 81–176 originally isolated from a diarrheic patient (Korlath et al., [1985]). The C. jejuni strains were routinely grown on Mueller-Hinton (MH; Becton Dickinson and Company, MD) agar under microaerobic conditions (85% N2, 10% CO2, and 5% O2) in a DG250 Microaerophilic Workstation (Microbiology International, MD) for 18 h, washed with MH broth and adjusted to a final OD600 of 0.1 in MH broth. One hundred micro liter of culture was transferred to 96-well plates and 1 μL (200 μM/μL) of library compounds and controls were added using a pin tool (Wallace et al., [2011]). Growth controls including DMSO (1% final concentration), kanamycin (50 μg), and chloramphenicol (20 μg) were added to duplicate wells along with 100 μL un-inoculated MH broth as sterility control. The final concentration was 200 μM for each small molecule. Prior to growth, an aluminum foil was applied (to avoid drug degradation) and plates were then incubated at 42°C, under microaerobic conditions for 24 h. The end-point OD600 was measured in a Sunrise TM Tecan plate reader (Tecan Group Ltd. San Jose, CA). We initially tried to exploit the automatic kinetic OD reader option of the Sunrise TM Tecan system but were un-successful. Maintenance of the microaerophilic growth conditions required by C. jejuni was difficult in the Tecan reader which is ideally suited for aerobic bacteria. Therefore, we used an end point assay. The quality of high-throughput screen (HTS) was evaluated by calculating the Z′-factor as described previously (Zhang et al., [1999]). Z′-factor is defined as 1−((3σp + 3σn)/|μp − μn|)) where “σp” and “σn” are the standard deviations of the positive (culture+ DMSO) and negative (culture+antibiotics) controls, respectively and “μp” and “μn” are the means of the positive and negative controls, respectively. A Z′-factor >0.5 indicates a robust assay (Zhang et al., [1999]).
The percentage of C. jejuni growth inhibition was calculated as mentioned previously (De La Fuente et al., [2006]) using the following formula: percentage of inhibition = 100 × (OD negative control–OD test compound)/(OD negative control–OD positive control). Compounds that inhibited Campylobacter growth ≥ 99.0% were selected as primary hits. The culture in wells with ≥ 99% growth inhibition were streaked onto fresh MH agar, as were the sterility, antibiotic and no compound control wells. Bacterial growth was measured on the plate after 48 h at 42°C. Based on the recovery of C. jejuni on MH agar plates, the compound was classified as either “bacteriostatic” or “bactericidal.”
(§1) The dose-dependent effect of 35 compounds against the highly pathogenic C. jejuni 81–176 strain was tested. Compounds were two-fold serially diluted (200 to 12.5 μM). One hundred micro liter of the OD600 0.1 adjusted C. jejuni culture was pipetted in to each well of a 96 well plate, treated with 1 μL of diluted compound and the plate was incubated at 42°C under microaerobic conditions for 24 h. Growth inhibition was assessed as above.
The minimal concentrations of compounds that inhibit the growth of C. jejuni were tested by two-fold serial dilution of each of compound in media as well as in DMSO. The results were reproducible irrespective of diluent used; however, a few compounds precipitated when media was used as a diluent. A recent study also described the in-solubility issues with a few small molecule compounds when dissolved in media for MIC determination (Selin et al., [2015]). […] Among the 21 compounds, 16 were effective at 50 μM, 7 were effective at 25 μM, and 4 were effective at 12.5 μM. We selected top-12 bactericidal compounds with MICs varying from 100 to 12.5 μM concentration for further downstream study.

For a further experiment, the system named is C. coli ATCC 33559. Description: Minimum inhibitory concentration (MIC). The class given is cell-based. The protocol:
as §1
Initially we re-confirmed the efficacy of the 79 resynthesized compounds against C. jejuni 81–176 and C. coli ATCC 33559.
Minimum inhibitory concentration value not necessarily indicates the killing concentration; therefore, we determined MBC for the top-12 compounds. MBC is defined as the concentration at which 99.9% (below detection limit) of Campylobacter organisms are killed. The MBC for each of these compounds were determined as described previously (Ling et al., [2015]). […] Overall MIC and MBC values were higher for C. coli compared to C. jejuni strain. The MIC and MBC for these 12 compounds for both C. jejuni and C. coli are presented in (Table 1).

The test system of experiment [2] is C. jejuni 81–176. Nature of the experiment: Sequential passage resistance assay at sub-lethal dose (0.5X MIC), 15 passages. The format is cell-based, Campylobacter jejuni. The conditions noted are these: liquid MH with 0.5X MIC. The method, then: Single step and sequential passage resistance assays were performed as described previously with a few modifications (Ling et al., [2015]; Xu et al., [2015]). The top 12 hit compounds were tested in this experiment. The MIC values for each of these 12 compound as determined in above assay was used for C. jejuni resistance studies using lethal (5X MIC) and sub-lethal (0.5X MIC) concentrations.
Overnight grown C. jejuni 81–176 culture was washed and suspended in MH broth to an OD600 of 0.05 (~10^7 CFU). Five milli liter of the OD adjusted fresh culture was mixed with 0.5X MIC of the relevant test compound (concentration allowing > 50% growth inhibition). Campylobacter jejuni cultured in 20 μg/mL chloramphenicol, or 50 μg/mL kanamycin, or 2% DMSO, or non-amended MH broth were used as controls. The bacteria were incubated at 42°C with shaking at 200 rpm for 24 h in the dark. Following incubation, cultures were centrifuged at 4700 × g for 10 min at room temperature. The supernatant was discarded; bacteria were resuspended in 5 ml of fresh MH containing 0.5X MIC of the same small molecule. This procedure was repeated 14 times. Following 15 passages, bacterial suspensions were assessed for resistance to the test compound by plating on MH media containing 1X MIC of small molecules.
Our rationale for performing the resistance studies was to determine the ability of C. jejuni strain to develop resistance to these compounds when cultured on solid media with a lethal dose (5X MIC) or in liquid media with a sub-lethal dose (0.5X MIC). The presence of resistant colonies in any of these assays would reduce the attractiveness of the relevant small molecule while an absence of resistant colonies would indicate a likely inability of C. jejuni to develop resistance in general. […] Since C. jejuni is the major cause of human campylobacteriosis (95% of the cases); (Butzler, [2004]) and due to limitation of compounds availability, we only performed resistance studies on C. jejuni 81–176. However, for future commercial application of these antimicrobials, more in-depth characterization of potential resistance by other C. jejuni strains and C. coli is warranted.

Where [3] appears, read: C. jejuni 81–176, 42°C microaerobic, dilution 200 to 12.5 μM.
Setting [4] is: Campylobacter coli, ATCC33559; read-out: C. coli MIC.
The mark [5] stands for this setting: Campylobacter coli, ATCC33559, read-out: C. coli MIC.

With `O=S(=O)(Nc1cccc(C(F)(F)F)c1)c1ccc(Br)cc1` [Comp 1], the MIC with C. jejuni 81–176 [1] (setting [3]) and with C. coli ATCC 33559 (setting [4]) was 50 µM (≈ 19 µg/mL) in each case. Further, the “Resistance, passage 0.5X MIC” value in the experiment on C. jejuni 81–176 [2] is “No”.

On to `COc1ccc(CN2CCN(c3ccc(F)cc3)CC2)cc1C` [Comp 2], for which the values for the MIC with C. jejuni 81–176 [1] and in the experiment on C. coli ATCC 33559 (setting [5]) were 100 µM (≈ 31.4 µg/mL) and 50 µM (≈ 15.7 µg/mL), respectively. Also, the “Resistance, passage 0.5X MIC” value in the experiment with C. jejuni 81–176 [2] was “No”.

For `CN(C)c1ccc(CN2CCN(c3ccccc3Cl)CC2)cc1` [Comp 3], the values for the MIC with C. jejuni 81–176 [1] and with C. coli ATCC 33559 (setting [5]) were 12.5 µM (≈ 4.12 µg/mL) and 50 µM (≈ 16.5 µg/mL), respectively. Also, in the experiment on C. jejuni 81–176 [2], the “Resistance, passage 0.5X MIC” value is “No”.

For `Clc1ccc(N2CCN(Cc3ccsc3)CC2)cc1` [Comp 4], the MIC in the experiment with C. jejuni 81–176 [1] (setting [3]) and with C. coli ATCC 33559 (setting [4]) was 50 µM (≈ 14.6 µg/mL) each time. Further, the “Resistance, passage 0.5X MIC” value in the experiment on C. jejuni 81–176 [2] was “No”.

On to `Cc1ccc(N2CCN(C/C=C/c3ccccc3)CC2)cc1` [Comp 5], for which the MIC in the experiment on C. jejuni 81–176 [1] (setting [3]) and in the experiment with C. coli ATCC 33559 (setting [4]) was 50 µM (≈ 14.6 µg/mL) each time. In addition, the “Resistance, passage 0.5X MIC” value in the experiment on C. jejuni 81–176 [2] is “No”.

With `O=c1c(Cl)c(Cl)cnn1-c1ccccc1Cl` [Comp 7], the figures for the MIC in the experiment on C. jejuni 81–176 [1] (setting [3]) and in the experiment on C. coli ATCC 33559 (setting [4]) were 12.5 µM (≈ 3.44 µg/mL) and 50 µM (≈ 13.8 µg/mL), respectively. Moreover, the “Resistance, passage 0.5X MIC” value with C. jejuni 81–176 [2] is listed as “No”.

As for `Cc1c(C(C)NCc2cccc(OC3CCCC3)c2)cnn1-c1ccccc1` (stereo not drawn) [Comp 10], the MIC is 50 µM (≈ 18.8 µg/mL) in the experiment with C. jejuni 81–176 [1] (setting [3]) and 100 µM (≈ 37.6 µg/mL) in the experiment with C. coli ATCC 33559 (setting [4]). In the experiment with C. jejuni 81–176 [2], the “Resistance, passage 0.5X MIC” value is given as “No”.

`COc1ccc(CNCc2ccc(Cl)s2)cc1OCC(O)CN1CCCC1` (stereo not drawn) [Comp 12]: the values for the MIC with C. jejuni 81–176 [1] (setting [3]) and in the experiment with C. coli ATCC 33559 (setting [4]) were 100 µM (≈ 41.1 µg/mL) and 50 µM (≈ 20.5 µg/mL), respectively. Further, the “Resistance, passage 0.5X MIC” value in the experiment with C. jejuni 81–176 [2] was “No”.

In the case of `CN(Cc1cccc2cnccc12)CC1CCCN(CCc2ccc(F)cc2)C1` (stereo not drawn) [Comp 13], the MIC amounted to 12.5 µM (≈ 4.89 µg/mL) in the experiment on C. jejuni 81–176 [1] (setting [3]) and 50 µM (≈ 19.6 µg/mL) in the experiment on C. coli ATCC 33559 (setting [4]). For the same molecule, in the experiment with C. jejuni 81–176 [2], the “Resistance, passage 0.5X MIC” value is given as “No”.

Consider `CN(CC(O)COc1ccccc1CNC1(c2ccccc2)CC1)C1CCCCC1` (stereo not drawn) [Comp 17], for which the MIC in the experiment on C. jejuni 81–176 [1] (setting [3]) was found to be 12.5 µM (≈ 5.11 µg/mL); in the experiment on C. coli ATCC 33559 (setting [4]), 50 µM (≈ 20.4 µg/mL). For the same molecule, the “Resistance, passage 0.5X MIC” value in the experiment with C. jejuni 81–176 [2] was “No”.

Turning to `CN(Cc1ccccc1)CC1CCCN(CCc2ccc(F)cc2)C1` (stereo not drawn) [Comp 18], the MIC with C. jejuni 81–176 [1] (setting [3]) is 25 µM (≈ 8.51 µg/mL); with C. coli ATCC 33559 (setting [4]) it was 200 µM (≈ 68.1 µg/mL). For the same molecule, the “Resistance, passage 0.5X MIC” value in the experiment on C. jejuni 81–176 [2] is listed as “No”.

Consider `CC(=O)Nc1ccc(CN(C)CC2CCCN(CCc3cccc(C(F)(F)F)c3)C2)cc1` (stereo not drawn) [Comp 22], for which the values for the MIC with C. jejuni 81–176 [1] (setting [3]) and with C. coli ATCC 33559 (setting [4]) were 12.5 µM (≈ 5.59 µg/mL) and 100 µM (≈ 44.8 µg/mL), respectively. Moreover, the “Resistance, passage 0.5X MIC” value in the experiment with C. jejuni 81–176 [2] is reported as “No”.
